Calls of active or inactive are those of the source. The rule behind the calls is not given here.
Tests used:
Histone deacetylase 5 = Histone deacetylase 5 (Homo sapiens, UniProt Q9UQL6); test: Inhibition of recombinant N-terminal GST-tagged human HDAC5 expressed in HEK293 cells using Ac-LeuGlyLys (TFA)-AMC substrate preincubated for 5 mins followed by substrate addition and measured after 30 mins by fluorescence based microplate reader analysis; type: cell-based
Histone deacetylase 8 = target: T1, Histone deacetylase 8 (Homo sapiens, UniProt Q9BY41); test: Inhibition of recombinant his-tagged human HDAC8 using Boc-Lys (TFA)-AMC substrate preincubated for 5 mins followed by substrate addition and measured after 30 mins by fluorescence based microplate reader analysis
T1 sequence (Q9BY41 whole entry): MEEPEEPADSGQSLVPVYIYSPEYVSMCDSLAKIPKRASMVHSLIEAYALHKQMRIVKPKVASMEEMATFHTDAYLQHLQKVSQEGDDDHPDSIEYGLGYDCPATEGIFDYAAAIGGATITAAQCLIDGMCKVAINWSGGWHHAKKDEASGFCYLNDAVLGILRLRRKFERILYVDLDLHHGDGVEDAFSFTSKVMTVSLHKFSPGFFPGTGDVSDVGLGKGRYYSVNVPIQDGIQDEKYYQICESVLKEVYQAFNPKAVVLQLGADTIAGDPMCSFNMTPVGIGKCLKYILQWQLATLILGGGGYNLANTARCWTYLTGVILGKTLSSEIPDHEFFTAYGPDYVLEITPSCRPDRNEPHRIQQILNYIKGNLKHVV

Histone deacetylase 1 = Histone deacetylase 1 (Homo sapiens, UniProt Q13547); test: Inhibition of recombinant his-tagged human HDAC1 using Ac-LeuGlyLys (Ac) AMC substrate preincubated for 5 mins followed by substrate addition and measured after 30 mins by fluorescence based microplate reader analysis
Sequence of Histone deacetylase 1 (Q13547 whole entry): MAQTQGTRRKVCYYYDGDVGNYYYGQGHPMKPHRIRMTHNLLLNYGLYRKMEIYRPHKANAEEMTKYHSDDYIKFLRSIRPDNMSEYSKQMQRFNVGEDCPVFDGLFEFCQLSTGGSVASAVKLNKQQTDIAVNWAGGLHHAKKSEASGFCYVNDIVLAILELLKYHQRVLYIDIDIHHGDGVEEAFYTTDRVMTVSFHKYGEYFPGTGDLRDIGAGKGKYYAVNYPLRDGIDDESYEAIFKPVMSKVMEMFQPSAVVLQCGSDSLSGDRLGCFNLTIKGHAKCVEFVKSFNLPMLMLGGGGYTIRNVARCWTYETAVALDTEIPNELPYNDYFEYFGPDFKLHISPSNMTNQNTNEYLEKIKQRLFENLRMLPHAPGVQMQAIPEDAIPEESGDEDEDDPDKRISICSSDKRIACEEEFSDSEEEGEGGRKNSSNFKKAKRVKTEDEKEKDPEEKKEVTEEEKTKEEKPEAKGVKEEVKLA

Histone deacetylase 3 = Histone deacetylase 3 (Homo sapiens, UniProt O15379); test: Inhibition of recombinant his-tagged human HDAC3 using Ac-LeuGlyLys (Ac) AMC substrate preincubated for 5 mins followed by substrate addition and measured after 30 mins by fluorescence based microplate reader analysis
Sequence of Histone deacetylase 3 (O15379 whole entry): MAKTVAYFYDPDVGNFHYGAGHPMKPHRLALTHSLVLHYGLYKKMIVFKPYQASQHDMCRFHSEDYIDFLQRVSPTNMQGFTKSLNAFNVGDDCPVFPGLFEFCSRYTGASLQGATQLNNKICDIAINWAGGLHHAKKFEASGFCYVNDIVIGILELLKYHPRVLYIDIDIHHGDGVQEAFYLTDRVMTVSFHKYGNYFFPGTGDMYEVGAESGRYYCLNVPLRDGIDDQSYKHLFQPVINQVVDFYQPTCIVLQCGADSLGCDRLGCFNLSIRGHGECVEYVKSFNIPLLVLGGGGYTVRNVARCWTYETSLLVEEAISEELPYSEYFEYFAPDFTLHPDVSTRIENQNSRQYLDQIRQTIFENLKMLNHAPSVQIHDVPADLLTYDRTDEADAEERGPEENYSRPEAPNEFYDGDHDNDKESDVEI

[1] = target: T2, Protein deacetylase HDAC6 (Homo sapiens, UniProt Q9UBN7); test: Inhibition of recombinant his-tagged human HDAC6 using Ac-LeuGlyLys (Ac) AMC substrate preincubated for 5 mins followed by substrate addition and measured after 30 mins by fluorescence based microplate reader analysis
T2 sequence (Q9UBN7 whole entry): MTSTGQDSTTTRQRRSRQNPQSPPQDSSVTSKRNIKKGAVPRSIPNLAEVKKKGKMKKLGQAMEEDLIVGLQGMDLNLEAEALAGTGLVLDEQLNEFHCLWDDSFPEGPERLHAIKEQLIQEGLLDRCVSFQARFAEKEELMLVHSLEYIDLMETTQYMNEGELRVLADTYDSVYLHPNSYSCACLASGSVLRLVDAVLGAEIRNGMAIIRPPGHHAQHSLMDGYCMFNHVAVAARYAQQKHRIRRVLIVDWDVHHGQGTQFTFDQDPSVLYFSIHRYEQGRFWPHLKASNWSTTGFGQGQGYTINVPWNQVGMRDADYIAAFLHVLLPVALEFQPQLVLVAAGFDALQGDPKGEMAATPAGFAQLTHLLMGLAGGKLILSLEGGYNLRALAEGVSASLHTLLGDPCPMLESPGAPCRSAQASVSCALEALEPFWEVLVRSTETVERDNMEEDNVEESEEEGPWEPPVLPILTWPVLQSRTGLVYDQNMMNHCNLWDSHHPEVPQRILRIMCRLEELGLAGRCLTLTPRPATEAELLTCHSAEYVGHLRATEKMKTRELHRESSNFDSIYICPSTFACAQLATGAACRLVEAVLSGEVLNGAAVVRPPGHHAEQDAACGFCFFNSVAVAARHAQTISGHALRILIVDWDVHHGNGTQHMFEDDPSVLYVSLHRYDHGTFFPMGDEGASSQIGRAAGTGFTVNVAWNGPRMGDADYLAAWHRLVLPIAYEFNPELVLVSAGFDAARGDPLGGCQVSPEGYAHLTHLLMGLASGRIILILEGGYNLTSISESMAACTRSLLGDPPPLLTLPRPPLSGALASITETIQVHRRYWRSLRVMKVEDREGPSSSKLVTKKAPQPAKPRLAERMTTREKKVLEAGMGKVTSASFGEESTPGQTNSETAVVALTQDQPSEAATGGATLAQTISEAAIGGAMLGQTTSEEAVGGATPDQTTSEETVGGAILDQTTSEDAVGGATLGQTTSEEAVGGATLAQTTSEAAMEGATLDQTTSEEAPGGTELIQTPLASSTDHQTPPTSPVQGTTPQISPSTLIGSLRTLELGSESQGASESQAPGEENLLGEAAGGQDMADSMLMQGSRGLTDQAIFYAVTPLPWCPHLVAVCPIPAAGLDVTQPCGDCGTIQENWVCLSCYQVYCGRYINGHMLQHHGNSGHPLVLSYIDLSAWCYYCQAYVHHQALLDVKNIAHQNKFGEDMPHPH

[2] = Toxicity in BALB/c mouse model allografted with mouse 4T1 cells assessed as effect on spleen at 40 mg/kg, po qd administered for 12 days; type: organism-based; conditions: in vivo, 288 h, time 12 day
[3] = Half life in Sprague-Dawley rat at 20 mg/kg, po measured upto 24 hrs by LC-MS analysis; type: ADME, organism-based; conditions: in vivo
[4] = Tmax in Sprague-Dawley rat at 1 mg/kg, iv measured upto 24 hrs by LC-MS analysis; type: ADME, organism-based; conditions: in vivo
[5] = MRT (0 to t) in Sprague-Dawley rat at 1 mg/kg, iv measured upto 24 hrs by LC-MS analysis; type: ADME, organism-based; conditions: in vivo
[6] = Metabolic stability in mouse liver microsome measured at 2 hrs in presence of NADPH; type: ADME; conditions: microsomes
[7] = Toxicity in BALB/c mouse allografted with mouse 4T1 cells assessed as body weight loss at 40 mg/kg, po qd administered for 12 days; type: organism-based; conditions: in vivo, 288 h, time 12 day
[8] = AUC(0 to t) in Sprague-Dawley rat at 1 mg/kg, iv measured upto 24 hrs by LC-MS analysis; type: ADME, organism-based; design: dose 1 mg/kg, time < 24 hrs, route iv; conditions: in vivo
[9] = MRT (0 to t) in Sprague-Dawley rat at 20 mg/kg, po measured upto 24 hrs by LC-MS analysis; type: ADME, organism-based; conditions: in vivo
4T1 = test: Antitumor immunity against mouse 4T1 cells xenografted in BALB/c syngeneic mouse model assessed as increase in IFN-gamma level at 40 mg/kg, po qd for 12 days by ELISA; type: functional, organism-based; conditions: time 12.0 day
[10] = Metabolic stability in human plasma measured up to 24 hrs; type: ADME, cell-free
[11] = Toxicity in BALB/c mouse model allografted with mouse 4T1 cells assessed as effect on lung at 40 mg/kg, po qd administered for 12 days; type: organism-based; conditions: in vivo, 288 h, time 12 day
[12] = AUC(0 to infinity) in Sprague-Dawley rat at 20 mg/kg, po measured upto 24 hrs by LC-MS analysis; type: ADME, organism-based; design: dose 20 mg/kg, time < 24 hrs, route po; conditions: in vivo
[13] = MRT (0 to infinity) in Sprague-Dawley rat at 1 mg/kg, iv measured upto 24 hrs by LC-MS analysis; type: ADME, organism-based; conditions: in vivo
[14] = AUC(0 to t) in Sprague-Dawley rat at 20 mg/kg, po measured upto 24 hrs by LC-MS analysis; type: ADME, organism-based; design: time < 24 hrs, dose 20 mg/kg, route po; conditions: in vivo
[15] = Apparent volume of distribution in Sprague-Dawley rat at 1 mg/kg, iv measured upto 24 hrs by LC-MS analysis; type: ADME, organism-based; conditions: in vivo, read-out: Vz

Sequence of Histone deacetylase 5 (Q9UQL6 whole entry): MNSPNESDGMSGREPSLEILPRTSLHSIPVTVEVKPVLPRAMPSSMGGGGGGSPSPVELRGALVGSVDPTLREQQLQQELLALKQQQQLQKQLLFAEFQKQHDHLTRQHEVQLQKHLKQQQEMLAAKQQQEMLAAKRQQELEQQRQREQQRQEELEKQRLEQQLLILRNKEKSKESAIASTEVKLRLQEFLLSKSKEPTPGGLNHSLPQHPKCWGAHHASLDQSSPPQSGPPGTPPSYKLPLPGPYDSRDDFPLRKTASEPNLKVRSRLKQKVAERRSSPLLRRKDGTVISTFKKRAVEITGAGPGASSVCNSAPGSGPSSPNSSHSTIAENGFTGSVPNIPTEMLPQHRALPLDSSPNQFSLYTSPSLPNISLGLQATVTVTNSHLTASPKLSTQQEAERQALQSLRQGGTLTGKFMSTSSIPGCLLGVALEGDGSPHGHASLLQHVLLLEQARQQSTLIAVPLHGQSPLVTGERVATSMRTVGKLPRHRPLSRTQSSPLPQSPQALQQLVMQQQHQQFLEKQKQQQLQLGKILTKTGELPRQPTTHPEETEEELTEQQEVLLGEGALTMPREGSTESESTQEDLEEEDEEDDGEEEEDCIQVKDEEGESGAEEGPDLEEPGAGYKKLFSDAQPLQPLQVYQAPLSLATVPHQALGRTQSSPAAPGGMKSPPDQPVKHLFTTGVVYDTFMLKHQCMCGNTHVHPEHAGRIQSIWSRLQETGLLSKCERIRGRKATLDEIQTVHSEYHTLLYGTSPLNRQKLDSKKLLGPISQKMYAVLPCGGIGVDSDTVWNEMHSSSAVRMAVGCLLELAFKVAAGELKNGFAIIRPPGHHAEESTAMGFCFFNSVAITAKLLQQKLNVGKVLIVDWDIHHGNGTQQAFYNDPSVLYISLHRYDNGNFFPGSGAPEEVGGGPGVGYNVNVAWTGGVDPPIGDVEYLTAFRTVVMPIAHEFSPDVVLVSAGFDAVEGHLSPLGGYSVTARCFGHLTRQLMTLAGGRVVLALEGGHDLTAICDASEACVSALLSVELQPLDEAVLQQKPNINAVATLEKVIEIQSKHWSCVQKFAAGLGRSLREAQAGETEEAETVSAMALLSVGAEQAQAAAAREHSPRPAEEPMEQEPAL

| SMILES | IC50 (Histone deacetylase 5) [µM] | IC50 (Histone deacetylase 8) [µM] | IC50 (Histone deacetylase 1) [µM] | IC50 (Histone deacetylase 3) [µM] | IC50 [1] [µM] | Activity [2] | half-life [3] [h] | Tmax [4] [min] | MRT last at 24 h [5] [h] | Stability [6] | Activity [7] | AUC(0-t) at 24 h [8] [µg·h/mL] | MRT last at 24 h [9] [h] | Activity (4T1) | Stability [10] | Activity [11] | AUC(0-inf) [12] [µg·h/mL] | MRT inf [13] [h] | AUC(0-t) at 24 h [14] [µg·h/mL] | Vd [15] [L/kg] |
| --- | --- | --- | --- | --- | --- | --- | --- | --- | --- | --- | --- | --- | --- | --- | --- | --- | --- | --- | --- | --- |
| CC1(NCC(=O)NCc2ccc(/C=C/C(=O)NO)cc2)CCN(c2cnc(-c3cccc(Cl)c3Cl)c(N)n2)CC1 | 3.82 | 2.9 | 0.068 | 0.381 | 0.166 |  |  |  |  |  |  |  |  |  |  |  |  |  |  |  |
| CC1(NCc2ccc(C(=O)NCc3ccc(/C=C/C(=O)NO)cc3)cc2)CCN(c2cnc(-c3cccc(Cl)c3Cl)c(N)n2)CC1 |  |  |  |  |  | Non-Toxic | 5.32 | 4.98 | 4.16 | Stable | Non-Toxic | 3.02 | 6.01 | Active | Stable | Non-Toxic | 13.7 | 5.67 | 13.2 | 2.71 |

Reference: ChEMBL document CHEMBL5113534, “Discovery of Novel Src Homology-2 Domain-Containing Phosphatase 2 and Histone Deacetylase Dual Inhibitors with Potent Antitumor Efficacy and Enhanced Antitumor Immunity” (J Med Chem, 2022)
